The numbers were not newly measured in patent US6245354A, “Drug delivery system using galactoxyloglucan” (Dainippon Pharmaceutical Co., Ltd., priority 1996, dated 2001), which cites them from elsewhere.

Turning to `CO[C@@]12[C@H](COC(N)=O)C3=C(C(=O)C(C)=C(N)C3=O)N1C[C@@H]1N[C@@H]12` [mitomycin C], the “transfer to systemic circulation” value (administered into the abdominal cavity) is on record as “rapidly transferred to a systemic circulation”. The therapeutic effects result (peritoneal tumors, carcinomatous peritonitis, into the abdominal cavity) is recorded as “can not exhibit sufficient therapeutic effects”.
